According to patent US20260132172A1, “IN VITRO BIOSYNTHESIS OF DIVERSE PYRIDINE-BASED MACROCYCLIC PEPTIDES” (The Brd. of Trustees of the Univ. of Illinois, priority 2022, published 2026):
Where a SMILES comes first, the peptide text is derived from it.

What was measured:
MroB = assay: Competition fluorescence polarization with fluorescein-Δ12MroA1, MroB; assay type: binding, Micromonospora rosaria; conditions: for IC50: competition FP, 80 nM enzyme, 5 nM labeled Δ12MroA1
Description: (§1) The initial sample contained 80 nM enzyme, 5 nM labeled Δ12MroA1 peptide, and competitor peptide (concentration is from 20 μM to 100 μM, depending on the experiment). In a black 384-well plate (Corning 3575), 30 μL of initial sample was added to the first well, followed by 13 2-fold dilutions into subsequent wells containing 80 nM MBP-MroB and 5 nM labeled Δ12MroA1. The plate was covered from light and incubated at room temperature for 10 min, and then fluorescence polarization was measured (Biotek Synergy H4 hybrid reader) using the following filter (Ex: Em—485 nm/20 nm: 518 nm/20 nm). The obtained data was converted to anisotropy value and plotted against peptide concentration, and fitted to dose-response function:
(§2) Where: y=anisotropy value, A1=minimum anisotropy, A2=maximum anisotropy, p=Hill's coefficient, x=competitor concentration. The obtained IC50 was used to calculate inhibitor constant Krusing the following equation: 12
(§3) In cases where competitor concentration was not high enough to achieve a plateau, the competition curve was fitted with minimum anisotropy fixed to be the same value as the anisotropy value of the free probe solution. This calculation assumed that the labeled peptide was completely displaced from the enzyme binding pocket at a very high concentration of the competitor. […] The specific minimum anisotropy used in this experiment for both MroB and MroD was 65.

MroD [1] = assay: Competition fluorescence polarization with fluorescein-Δ12MroA1, MroD; assay type: binding, Micromonospora rosaria; conditions: competition FP, 80 nM enzyme, 5 nM labeled Δ12MroA1
Description: as §1, §2, §3

MroB/C = MroB/C dehydration (Dha formation) of MroA precursor peptide variants, MALDI-TOF-MS / LC-MS/MS; assay type: biochemical, Micromonospora rosaria; conditions: for dehydration by MroBC (site and extent): MroBC assays followed by LC-MS/MS analysis, result in words; for Dha formation: MroA2 multi-site variants, in vitro translated, MALDI-TOF-MS
Description: In a 0.65 mL protein low-binding Eppendorf tube placed on ice. 0.75 μL of purified mroA variant template DNA was mixed with 0.75 μL of Solution B and 1 μL of Solution A of PURExpress In vitro Protein Synthesis Kit (E6800L) purchased from NEB (total volume of reaction is 2.5 μL). The translation reactions were performed at 37° C. for 1 h on an aluminum block.
For a full MroBCD substrate scope investigation, a total translation volume for each variant of 7.5 μL was performed. 1.5 μL of 90 mM iodoacetamide (IAA) was added to quench dithiothreitol (DTT) in the translation reaction mixture, a thiol-based nucleophile that can react with electrophilic dehydroalanines generated from MroBC-catalyzed dehydration assays. The translation product was split into two parts with these corresponding volumes: 3 μL and 6 μL. In the 6 μL part. 10.2 μL of the enzyme mix containing enzymes and cofactors was added along with 1.8 μL 90 mM ATP (pH 7.5), which was used to initiate the reaction. The enzyme mix was made by adding these components in the following order: HEPES pH 7.5, MgCl2, glutamate, T. bispora tRNA^Glu (CUC), thermostable inorganic pyrophosphatase (TIPP), TEV (L56V/S135G/S219V) (w/w ratio with a total amount of MBP-tagged protein=1:10), MBP-MroB, MBP-MroC, and T. bispora GluRS. The enzyme mix was incubated 25 min at room temperature before adding to the translation product to facilitate in situ TEV-catalyzed cleavage of MBP from MBP-MroB and MBP-MroC. The enzymatic reaction proceeded for 1 h at room temperature. Overall, the concentration of components in the 18 μL reaction mix is as follows: 50 mM HEPES pH 7.5, 5 mM MgCl2. L-glutamate 1 mM, 3 μM T. bispora tRNA^Glu, 1 μM T. bispora GluRS, 2 μM MBP-MroB, 2 μM MBP-MroC, […], 0.027 U/μL TIPP, and 5 mM IAA. In addition, the 3 μL part was incubated with the same buffer lacking enzymes and tRNA as a translation control.
The reactions were performed similarly as described above, with 10 μM substrate concentration and without IAA. The total volume of each reaction is 100 μL.
Enzymatic assays were desalted using solid-phase extraction prior to LC-ESI-MS/MS analysis. Specifically, except for the thiazol(in)es-containing pyritide (which utilize 8 mg Pierce C18 Spin Column), the samples were applied to Toptip C18 (10-200 μL, Glygen Corp) wetted with 50 μL of 80% acetonitrile (0.1% formic acid) and equilibrate with 150 μL of 0.1% formic acid following the manufacturer instructions. The C18 columns (tips) are then washed with 150 μL of 0.1% formic acid and eluted using 100 μL 80% acetonitrile (0.1% formic acid). The samples were then dried utilizing lyophilization and redissolved in 25% acetonitrile (80 μL for enzymatic assays of in vitro-translated substrates and 200 μL for enzymatic assays of purified substrates). Then 20 μL of each sample was injected into an Agilent AdvanceBio Peptide Plus column (2.1×150 mm, 2.7 μm) equipped with an Agilent 6545B Q-TOF interfaced with an Agilent 1290 Infinity II LC system. Mobile phase solvents were composed of H2O, 0.1% formic acid (Solvent A), and acetonitrile 0.1% formic acid (Solvent B). The column compartment was maintained at 35° C. during all experiments. The column was equilibrated with 5 column volumes of starting mobile phase (95% A and 5% B) between injections. The gradient of all LC runs was as follows: 0-2 min: 95% A 5% B, 2-3 min: 70% A 30% B, 3-18 min: 20% A 80% B, 18-20 min: 5% A 95% B. The samples were run to waste for the first 3 min before applying to the mass spectrometer. Mass range was set from 100 to 1700 m/z (except for 412MroA1 W7G: 100-3000 m/z). MS parameters were as follows: gas, 320° C. at 8 L/min: nebulizer, 35 psig: nozzle voltage, 1000 V: sheath gas, 350° C. at 11 L/min: capillary, 3500 V: fragmentor, 125 V: skimmer, 65 V: MS scan rate (10) spectra/s): MS-MS scan rate (5 spectra/s); and isolation width (MS/MS), 1.3 m z. […]

[2] = molecular target: MBP-MroD (Micromonospora rosaria MroD with maltose-binding protein fused to the N-terminus) (Micromonospora rosaria) [MBP: P0AEX9]; assay: competition fluorescence polarization against fluorescein-Δ12MroA1
[3] = molecular target: MBP-MroB (Micromonospora rosaria MroB with maltose-binding protein fused to the N-terminus) (Micromonospora rosaria) [MBP: P0AEX9]; assay: as above
MroD [4] = assay: MroD [4+2] macrocyclization of didehydrated MroA2 variants, MALDI-TOF-MS; assay type: biochemical, Micromonospora rosaria; set-up: key: +++ indicates enzyme activity roughly equal to wild-type MroA2; ++ indicates modestly reduced enzyme activity; + indicates severely reduced enzyme activity; − indicates no detectable enzyme activity (no macrocycles detected); conditions: MroA2 multi-site variants; qualitatively estimated from leader peptide vs remaining didehydrated intermediate
Description: After incubation, the enzyme reaction (18 μL) was split into two equal parts. One part was treated with MBP-MroD such that the final concentration of MBP-MroD is 3 μM, and the other part was added the same volume but with buffer lacking MBP-MroD (50 mM HEPES, 300 mM NaCl, 2.5% glycerol, 0.5 mM TCEP). The reaction further proceeded for 1.5 h at room temperature. All reaction mixture was then desalted with solid-phase extraction using Ziptip with 0.6 μL C18 resin (EMD Millipore) and crystallized on an MTP384 steel target plate using either saturated sinapic acid or 50 mg/mL Super DHB [dissolved in 60% acetonitrile and 0.1% trifluoroacetic acid (TFA)] as the matrix. The crystallized spots were then analyzed using MALDI-TOF-MS (Bruker Ultraflex). The external standard for MALDI-TOF-MS analysis is ProteoMass Peptide and Protein MALDI-MS Calibration Kit (Sigma).

Molecule	Dha formation (MroB/C)	Relative MroD conversion (MroD [4])	further results
CC[C@H](C)[C@H](NC(=O)[C@H](CC(=O)O)NC(=O)[C@H](CC(C)C)NC(=O)[C@H](CC(=O)O)NC(=O)[C@@H](N)CO)C(=O)N[C@H](C(=O)N[C@@H](CC(=O)O)C(=O)N[C@@H](CC(C)C)C(=O)N[C@@H](CC(=O)O)C(=O)N[C@@H](CC(C)C)C(=O)N[C@@H](C)C(=O)N[C@H](C(=O)N[C@@H](CC(=O)O)C(=O)N[C@@H](CCC(=O)O)C(=O)N[C@@H](CCC(=O)O)C(=O)N[C@@H](CC(C)C)C(=O)N[C@@H](C)C(=O)N[C@@H](C)C(=O)N[C@@H](CC(C)C)C(=O)N[C@@H](CO)C(=O)N[C@H](C(=O)NCC(=O)NCC(=O)N[C@@H](CC(C)C)C(=O)NCC(=O)N[C@@H](CC(N)=O)C(=O)N[C@H](C(=O)N[C@@H](CCC(=O)O)C(=O)N[C@H](C(=O)NCC(=O)N[C@@H](C)C(=O)N[C@@H](CO)C(=O)NCC(=O)N[C@@H](Cc1c[nH]c2ccccc12)C(=O)N[C@@H](CC(C)C)C(=O)NCC(=O)N[C@@H](CO)C(=O)N[C@@H](Cc1c[nH]c2ccccc12)C(=O)N[C@H](C(=O)N[C@H](C(=O)OC)[C@@H](C)CC)C(C)C)C(C)C)[C@@H](C)O)C(C)C)C(C)C)C(C)C [Δ12MroA1-COOMe] (H-SDLDIVDLDLAVDEELAALSVGGLGNTEVGASGWLGSWVI-OMe)			IC50 (MroB): 4.2 ± 1.7 µM; loss in binding affinity to MroB (MroB; relative to Δ12MroA1): ~8 fold; IC50 (MroD [1]): 0.4 ± 0.06 µM
Ac-GASGWLGSWVI-OH [GlyAla-MroA1 core, Ac-GASGWLGSWVI]			dehydration by MroBC (site and extent) (MroB/C): only Ser6 is dehydrated; IC50 (MroB): 27.2 ± 1.9 µM; IC50 (MroD [1]): 40.9 ± 5 µM
GlyAla-MroA1 core (peptide)			IC50 [2]: 40.9 µM; IC50 [3]: 27.2 µM
H-SDLDIVDLDLAVDEELAALSVGGLGNTEVGA-OH [Δ12MroA1 Leader]			IC50 (MroB): 19.4 ± 1.6 µM; IC50 (MroD [1]): 16 ± 4.4 µM
H-SDLDIVDLDLAVDEELAALSVGGLGNTEVGASGWLGSGVI-OH [Δ12MroA1-W7G]			dehydration by MroBC (site and extent) (MroB/C): only Ser1 is predominantly dehydrated; IC50 (MroB): 8.1 ± 3.9 µM; IC50 (MroD [1]): 2.4 ± 0.3 µM
H-SDLDIVDLDLAVDEELAALSVGGLGNTEVGASGWLGSWGI-OH [Δ12MroA1-V8G]			IC50 (MroB): 1.1 ± 0.2 µM; IC50 (MroD [1]): 1.7 ± 0.4 µM
H-SDLDIVDLDLAVDEELAALSVGGLGNTEVGASGWLGSWVG-OH [Δ12MroA1-I9G]			IC50 (MroB): 2 ± 0.6 µM; IC50 (MroD [1]): 0.91 ± 0.09 µM
SGDAMRWRSWLI [Number 53-A8R]	2 Dha	−	
SGGYRPHSWLI [Number 38]	2 Dha	−	
SGHYKPQASWLI [Number 55]	2 Dha	−	
SGHYKPQRSWLI [Number 55-A8R]	2 Dha	−	
SGIAKEVQSWLI [Number 47]	2 Dha	−	
SGIAKEVRSWLI [Number 47-Q8R]	2 Dha	−	
SGKALEFSWLI [Number 29]	2 Dha	−	
SGLQHGKRSWLI [Number 52-Y8R]	2 Dha	−	
SGLQHGKYSWLI [Number 52]	2 Dha	−	
SGRANSWLI [Number 2]	2 Dha	−	
SGRYAGWSWLI [Number 39]	2 Dha	−	
SGVKADSWLI [Number 4]	2 Dha	−	
SGYDRQYSWLI [Number 56]	2 Dha	−	
SGYHFHNRSWLI [Number 54-V8R]	2 Dha	−	
SGYHFHNVSWLI [Number 54]	2 Dha	−	
Δ12MroA1 (variant of MroA1 in which the first 12 residues were deleted) (peptide)			IC50 [2]: 0.9 µM; IC50 [3]: 0.68 µM
Δ12MroA1 Leader (peptide)			IC50 [2]: 16 µM; IC50 [3]: 19.4 µM
Δ12MroA1-COOMe (peptide)			IC50 [2]: 0.4 µM; IC50 [3]: 4.2 µM; fold loss in binding affinity (against Δ12MroA1) [3]: 8 fold
Δ12MroA1-I9G (peptide)			IC50 [2]: 0.91 µM; IC50 [3]: 2 µM
Δ12MroA1-V8G (peptide)			IC50 [2]: 1.7 µM; IC50 [3]: 1.1 µM
Δ12MroA1-W7G (peptide)			IC50 [2]: 2.4 µM; IC50 [3]: 8.1 µM
